{"source": "patent US20250346585A1", "about": "(Alexion Pharmaceuticals, Inc., priority 2022, published 2025)"}
{"molecular_target": "Human complement C1s enzyme (Homo sapiens (Human), UniProt P09871)", "sequence (P09871 438-688 limits assumed)": "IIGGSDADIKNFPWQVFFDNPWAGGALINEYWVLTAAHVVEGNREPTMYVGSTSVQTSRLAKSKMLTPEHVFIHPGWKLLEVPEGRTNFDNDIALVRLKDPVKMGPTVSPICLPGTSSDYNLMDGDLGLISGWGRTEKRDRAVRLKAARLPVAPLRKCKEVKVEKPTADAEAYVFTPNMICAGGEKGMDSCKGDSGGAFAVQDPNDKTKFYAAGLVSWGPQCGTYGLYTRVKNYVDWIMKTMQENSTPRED", "sequence (P09871 16-437 partner limits assumed)": "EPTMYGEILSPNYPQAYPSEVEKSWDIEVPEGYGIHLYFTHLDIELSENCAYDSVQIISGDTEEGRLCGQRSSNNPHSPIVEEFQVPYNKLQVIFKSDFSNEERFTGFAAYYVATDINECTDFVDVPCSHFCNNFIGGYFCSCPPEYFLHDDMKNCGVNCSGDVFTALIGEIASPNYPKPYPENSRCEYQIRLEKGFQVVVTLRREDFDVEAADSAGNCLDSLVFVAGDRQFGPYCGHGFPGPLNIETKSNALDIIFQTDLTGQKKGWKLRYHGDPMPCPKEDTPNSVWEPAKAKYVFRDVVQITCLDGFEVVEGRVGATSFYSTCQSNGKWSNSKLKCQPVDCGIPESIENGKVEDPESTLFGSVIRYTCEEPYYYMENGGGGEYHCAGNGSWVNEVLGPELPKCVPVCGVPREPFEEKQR", "experiment": "Human C1s enzyme assay", "type": "biochemical", "conditions": "Human C1s enzyme assay of Example 3; read-out: IC50 (Stars)", "in_short": "(§1)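 Purified serum-derived human C1s (1.16 nM final) preincubated 5 min at room temperature with compound in 50 mM Tris, 1 M NaCl, pH 7.5. Z-L-Lys-SBzl thioester substrate and DTNB added (100 μM each, final); A405 read every 30 s for 30 min. IC50 from nonlinear regression of reaction rates against compound concentration.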", "units": {"IC50": "nM"}}
{"molecule": "COC[C@H]1C[C@@H](C(=O)N[C@H](C)c2cc(C(=N)N)cs2)N(C(=O)CNC(=O)c2ccc3c(c2)-c2ccccc2C3(F)F)C1", "note": "(relative stereo) [Compound 117, (2S,4S*)—N—((R)-1-(4-carbamimidoylthiophen-2-yl)ethyl)-1-((9,9-difluoro-9H-fluorene-3-carbonyl)glycyl)-4-(methoxymethyl)pyrrolidine-2-carboxamide]", "IC50": "< 100"}
{"molecule": "COC[C@@H]1C[C@@H](C(=O)N[C@H](C)c2cc(C(=N)N)cs2)N(C(=O)CNC(=O)c2ccc3c(c2)-c2ccccc2C3(F)F)C1", "note": "(relative stereo) [Compound 118, (2S,4R*)—N—((R)-1-(4-carbamimidoylthiophen-2-yl)ethyl)-1-((9,9-difluoro-9H-fluorene-3-carbonyl)glycyl)-4-(methoxymethyl)pyrrolidine-2-carboxamide]", "IC50": "< 100"}
{"molecule": "COC[C@@]1(F)C[C@@H](C(=O)N[C@H](C)c2cc(C(=N)N)cs2)N(C(=O)CNC(=O)c2ccc3c(c2)-c2ccccc2C3(C)C)C1", "note": "[Compound 139, (2S,4R)—N—((R)-1-(4-carbamimidoylthiophen-2-yl)ethyl)-1-((9,9-dimethyl-9H-fluorene-3-carbonyl)glycyl)-4-fluoro-4-(methoxymethyl) pyrrolidine-2-carboxamide]", "IC50": "< 100"}
{"molecule": "COC[C@@]1(F)C[C@@H](C(=O)N[C@H](C)c2cc(C(=N)N)cs2)N(C(=O)CNC(=O)c2ccc(Oc3ccc(C)cc3)cc2)C1", "note": "[Compound 19, (2S,4R)—N—((R)-1-(4-carbamimidoylthiophen-2-yl)ethyl)-4-fluoro-4-(methoxymethyl)-1-((4-(p-tolyloxy)benzoyl)glycyl)pyrrolidine-2-carboxamide]", "IC50": "< 100"}
{"molecule": "COC(=O)/N=C(/N)c1csc([C@@H](C)NC(=O)[C@@H]2CC3(CN2C(=O)CNC(=O)c2ccc4c(c2)-c2ccccc2C4(F)F)OCCO3)c1", "note": "[Compound 148, methyl ((E)-amino(5-((R)-1-((S)-7-((9,9-difluoro-9H-fluorene-3-carbonyl)glycyl)-1,4-dioxa-7-azaspiro[4.4]nonane-8-carboxamido)ethyl)thiophen-3-yl)methylene)carbamate]", "IC50": "< 100"}
{"molecule": "N=C(N)c1csc(CNC(=O)[C@@H]2CC3(CN2C(=O)CNC(=O)c2ccc(-c4cc5ccccc5s4)cc2)OCCO3)c1", "note": "[Compound 145]", "IC50": "< 100"}
{"molecular_target": "Human complement C1s enzyme (Homo sapiens (Human), UniProt P09871)", "experiment": "Human C1s enzyme assay", "type": "biochemical", "conditions": "Human complement C1s enzyme 1.16 nM, substrate Z-L-Lys-SBzl 100 μM, assay of Example 3; read-out: IC50 (Stars)", "in_short": "as §1", "units": {"IC50": "nM"}}
{"molecule": "C[C@@H](NC(=O)[C@@H]1CC2(CN1C(=O)Cc1ccc(-c3ccccc3)cc1)OCCO2)c1cc(C(=N)N)cs1", "note": "[Compound 338, (S)-7-(2-([1,1′-biphenyl]-4-yl)acetyl)-N—((R)-1-(4-carbamimidoylthiophen-2-yl)ethyl)-1,4-dioxa-7-azaspiro[4.4]nonane-8-carboxamide]", "IC50": "< 100"}
{"molecule": "C[C@@H](NC(=O)[C@@H]1C[C@]2(Cn3ccnn3)C[C@@H]2N1C(=O)CNC(=O)c1ccc2c(c1)-c1ccccc1C2(F)F)c1cc(C(=N)N)cs1", "note": "[Compound 274, (1S,3S,5S)-5-((1H-1,2,3-triazol-1-yl)methyl)-N—((R)-1-(4-carbamimidoylthiophen-2-yl)ethyl)-2-((9,9-difluoro-9H-fluorene-3-carbonyl)glycyl)-2-azabicyclo[3.1.0]hexane-3-carboxamide]", "IC50": "< 100"}
{"molecule": "N=C(N)c1csc([C@@H](CO)NC(=O)[C@@H]2CC3(CN2C(=O)CNC(=O)c2ccc4c(c2)-c2ccccc2C4(F)F)OCCO3)c1", "note": "[Compound 376, (S)—N—((R)-1-(4-carbamimidoylthiophen-2-yl)-2-hydroxyethyl)-7-((9,9-difluoro-9H-fluorene-3-carbonyl)glycyl)-1,4-dioxa-7-azaspiro [4.4]nonane-8-carboxamide]", "IC50": "< 100"}
{"molecule": "C[C@@H](NC(=O)[C@@H]1C[C@@H](C(F)(F)F)CN1C(=O)CNC(=O)c1ccc2c(c1)-c1ccccc1C2(F)F)c1cc(C(=N)N)cs1", "note": "[Compound 324, (2S,4R)—N—((R)-1-(4-carbamimidoylthiophen-2-yl)ethyl)-1-((9,9-difluoro-9H-fluorene-3-carbonyl)glycyl)-4-(trifluoromethyl)pyrrolidine-2-carboxamide]", "IC50": "< 100"}
{"molecule": "NCCCC(=O)Nc1csc(CNC(=O)[C@@H]2CC3(CN2C(=O)CNC(=O)c2ccc(Oc4ccc(F)cc4)cc2)OCCO3)c1", "note": "[Compound 320, (S)-N-((4-(4-aminobutanamido)thiophen-2-yl)methyl)-7-((4-(4-fluorophenoxy)benzoyl)glycyl)-1,4-dioxa-7-azaspiro[4.4]nonane-8-carboxamide]", "IC50": "> 1000"}
{"molecule": "Cc1ccc(-c2ccc(C(=O)NCC(=O)N3CC4(C[C@H]3C(=O)NCc3cc(C(=N)N)cs3)OCCO4)cc2)cc1F", "note": "[Compound 210, (S)—N-((4-carbamimidoylthiophen-2-yl)methyl)-7-((3′-fluoro-4′-methyl-[1,1′-biphenyl]-4-carbonyl)glycyl)-1,4-dioxa-7-azaspiro[4.4]nonane-8-carboxamide]", "IC50": "< 100"}
{"molecule": "Cc1cc(-c2ccc(C(=O)NCC(=O)N3CC4(C[C@H]3C(=O)NCc3cc(C(=N)N)cs3)OCCO4)cc2)ccc1F", "note": "[Compound 199, (S)—N-((4-carbamimidoylthiophen-2-yl)methyl)-7-((4′-fluoro-3′-methyl-[1,1′-biphenyl]-4-carbonyl)glycyl)-1,4-dioxa-7-azaspiro[4.4]nonane-8-carboxamide]", "IC50": "< 100"}
{"molecule": "C[C@@H](NC(=O)[C@@H]1C[C@@H](c2ccncc2)CN1C(=O)CNC(=O)c1ccc2c(c1)-c1ccccc1C2(F)F)c1cc(C(=N)N)cs1", "note": "[Compound 377, (2S,4S)—N—((R)-1-(4-carbamimidoylthiophen-2-yl)ethyl)-1-((9,9-difluoro-9H-fluorene-3-carbonyl)glycyl)-4-(pyridin-4-yl)pyrrolidine-2-carboxamide]", "IC50": "< 100"}
{"molecule": "C[C@@H](NC(=O)[C@@H]1C[C@](F)(COCCCCCC(=O)O)CN1C(=O)CNC(=O)c1ccc2c(c1)-c1ccccc1C2(F)F)c1cc(C(=N)N)cs1", "note": "[Compound 201, 6-(((3R,5S)-5-(((R)-1-(4-carbamimidoylthiophen-2-yl)ethyl)carbamoyl)-1-((9,9-difluoro-9H-fluorene-3-carbonyl)glycyl)-3-fluoropyrrolidin-3-yl)methoxy)hexanoic acid]", "IC50": "< 100"}
{"molecule": "C[C@@H](NC(=O)[C@@H]1C[C@H](C(F)(F)F)CN1C(=O)CNC(=O)c1ccc2c(c1)-c1ccccc1C2(F)F)c1cc(C(=N)N)cs1", "note": "[Compound 322, (2S,4S)—N—((R)-1-(4-carbamimidoylthiophen-2-yl)ethyl)-1-((9,9-difluoro-9H-fluorene-3-carbonyl)glycyl)-4-(trifluoromethyl)pyrrolidine-2-carboxamide]", "IC50": "< 100"}
{"molecule": "CS(=O)(=O)N(c1csc(CNC(=O)[C@@H]2CC3(CN2C(=O)CNC(=O)c2ccc(Oc4ccc(F)cc4)cc2)OCCO3)c1)S(C)(=O)=O", "note": "[Compound 286, (S)-7-((4-(4-fluorophenoxy)benzoyl)glycyl)-N-((4-((N-(methylsulfonyl)methyl)sulfonamido)thiophen-2-yl)methyl)-1,4-dioxa-7-azaspiro[4.4]nonane-8-carboxamide]", "IC50": "> 1000"}
{"molecule": "C[C@@H](NC(=O)[C@@H]1C[C@@H](S(C)(=O)=O)CN1C(=O)CNC(=O)c1ccc2cc3ccccc3cc2c1)c1cc(C(=N)N)cs1", "note": "[Compound 239, (2S,4R)-1-((anthracene-2-carbonyl)glycyl)-N—((R)-1-(4-carbamimidoylthiophen-2-yl)ethyl)-4-(methylsulfonyl)pyrrolidine-2-carboxamide]", "IC50": "< 100"}
{"molecule": "C[C@@H](NC(=O)[C@@H]1C[C@@H](S(C)(=O)=O)CN1C(=O)CNC(=O)c1ncc(-c2ccccc2)cc1F)c1cc(C(=N)N)cs1", "note": "[Compound 339, N-(2-((2S,4R)-2-(((R)-1-(4-carbamimidoylthiophen-2-yl)ethyl)carbamoyl)-4-(methylsulfonyl)pyrrolidin-1-yl)-2-oxoethyl)-3-fluoro-5-phenylpicolinamide]", "IC50": "< 100"}
{"molecule": "C[C@@H](NC(=O)[C@@H]1CC2(CN1C(=O)CCC(=O)c1ccc(-c3ccccc3)cc1)OCCO2)c1cc(C(=N)N)cs1", "note": "[Compound 345, (S)-7-(4-([1,1′-biphenyl]-4-yl)-4-oxobutanoyl)-N—((R)-1-(4-carbamimidoylthiophen-2-yl)ethyl)-1,4-dioxa-7-azaspiro[4.4]nonane-8-carboxamide]", "IC50": "< 100"}
{"molecule": "N=C(N)c1csc([C@@H](NC(=O)[C@@H]2CC3(CN2C(=O)CNC(=O)c2ccc4c(c2)-c2ccccc2C4(F)F)OCCO3)C(F)(F)F)c1", "note": "(relative stereo) [Compound 275, (S)—N—((S*)-1-(4-carbamimidoylthiophen-2-yl)-2,2,2-trifluoroethyl)-7-((9,9-difluoro-9H-fluorene-3-carbonyl)glycyl)-1,4-dioxa-7-azaspiro[4.4]nonane-8-carboxamide]", "IC50": "< 100"}
{"molecular_target": "Human complement C1s enzyme (Homo sapiens (Human), UniProt P09871)", "experiment": "Human C1s enzyme assay", "type": "biochemical", "conditions": "Human complement C1s enzyme 1.16 nM, substrate Z-L-Lys-SBzl; assay of Example 3; read-out: IC50 (Stars)", "in_short": "as §1", "units": {"IC50": "nM"}}
{"molecule": "C[C@@H](NC(=O)[C@@H]1CC(c2ncco2)CN1C(=O)CNC(=O)c1ccc2c(c1)-c1ccccc1C2(F)F)c1cc(C(=N)N)cs1", "note": "(stereo partly drawn) [Compound 416, (S)—N—((R)-1-(4-carbamimidoylthiophen-2-yl)ethyl)-1-((9,9-difluoro-9H-fluorene-3-carbonyl)glycyl)-4-(oxazol-2-yl)pyrrolidine-2-carboxamide]", "IC50": "< 100"}
{"molecule": "C[C@@H](NC(=O)[C@@H]1C[C@@H](c2nccs2)CN1C(=O)CNC(=O)c1ccc(Oc2ccc(F)cc2)cc1)c1cc(C(=N)N)cs1", "note": "[Compound 412, (2S,4R)—N—((R)-1-(4-carbamimidoylthiophen-2-yl)ethyl)-1-((4-(4-fluorophenoxy)benzoyl)glycyl)-4-(thiazol-2-yl)pyrrolidine-2-carboxamide]", "IC50": "< 100"}
{"molecule": "C[C@@H](NC(=O)[C@@H]1C[C@]2(COCCCCN(C)C)C[C@@H]2N1C(=O)CNC(=O)c1ccc2c(c1)-c1ccccc1C2(F)F)c1cc(C(=N)N)cs1", "note": "[Compound 415, (1S,3S,5R)—N—((R)-1-(4-carbamimidoylthiophen-2-yl)ethyl)-2-((9,9-difluoro-9H-fluorene-3-carbonyl)glycyl)-5-((4-(dimethylamino)butoxy)methyl)-2-azabicyclo[3.1.0]hexane-3-carboxamide]", "IC50": "< 100"}
